Laboratory results as given in patent US9340559B2, “Proteasome inhibitor delanzomib for use in the treatment of lupus” (Cephalon, Inc., priority 2011, dated 2016).

How the values were obtained:
NZM mice = type: in vivo, mouse
MRL/lpr mice = assay: Renal histopathology scoring (kidney IC-GN), MRL/lpr mice; type: in vivo, mouse
Procedure: For histological analyses, the left kidney from each animal is removed and fixed in 10% buffered neutral 10% formalin (EMD) for 48 hours on an orbital rocker at 25° C., then washed overnight with running dH2O and stored in 70% ethanol at 4° C. until ready to be processed. Kidney stains used for histological analyses included hematoxylin and eosin (H&E), Periodic Acid Schiff (PAS) and Trichrome stains (Wistar Institute, Philadelphia, Pa.). All 3 stained sections are used by the pathologist for scoring purposes. All histological scoring is performed blinded and by an independent board certified veterinary medical pathologist (Julie Engiles, VMD, DACVP). Multiple stains are used to determine score values. Images in FIG. 17 show worst affected area of section selected blindly by the pathologist.
Kidney IC-GN Scoring Method (Smith, Dong et al. 2007):
1. Glomerular cellularity—Score 1-5: Null, low, moderate, high, severe
2. Glomerular necrosis—Score 1-5: Null, low, moderate, high, severe
3. Glomerulosclerosis—Score 1-5: Null, low, moderate, high, severe
4. Interstitial infiltration—Score 1-5: Null, low, moderate, high, severe
5. Tubular atrophy—Score 1-5: Null, low, moderate, high, severe
6. Interstitial fibrosis—Score 1-5: Null, low, moderate, high, severe
7. Vasculitis—Score 1-5: Null, low, moderate, high, severe
Specific Pathologist Definitions: • Necrosis is defined by the presence of nuclear debris/pyknosis within the glomerular tuft indicative of “necrosis.” In many samples, this is a very mild, rare finding within only a very few segments of the glomerular tuft. Also consider effacement of the glomerular tuft by PAS positive, Trichrome negative material necrosis. • Glomerular sclerosis is defined by increased fibroplasia or fibrosis within the glomerular tuft or capsule. […] Most of the vascular changes are mild and could be considered “arteriosclerosis” characterized by proliferation of the smooth muscle cells, and hyalinization of the extracellular matrix. This change may reflect hypertension secondary to glomerular pathology. In very few animals is there overt “vasculitis.” Most inflammatory changes are within the walls of the blood vessels, with little to no damage to the endothelium, and no overt hemorrhage/fibrin leakage. Many also have perivascular rims of fibroblasts.

CC(C)C[C@H](NC(=O)[C@@H](NC(=O)c1cccc(-c2ccccc2)n1)[C@@H](C)O)B(O)O [COMPOUND A, [(1R)-1-[[(2S,3R)-3-hydroxy-2-[6-phenyl-pyridine-2-carbonyl)amino]-1-oxobutyl]amino]-3-methylbutylboronic acid]
p, serum IL-13 concentration vs G8 Dex 1.5 mg/kg 3× wk ip (NZM mice; G2 3 mg/kg 2× wk ip): NS (NS = not significant (p > 0.05))
p, serum IL-13 concentration vs G9 Vehicle 1× wk ip (NZM mice; G2 3 mg/kg 2× wk ip): NS (NS = not significant (p > 0.05))
p, serum IL-17A concentration vs G5 Bortezomib 0.3 mg/kg 1× wk ip (NZM mice; G2 3 mg/kg 2× wk ip): NS (NS = not significant (p > 0.05))
p, serum IL-17A concentration vs G6 Bortezomib 0.3 mg/kg 2× wk ip (NZM mice; G2 3 mg/kg 2× wk ip): NS (NS = not significant (p > 0.05))
p, serum IL-17A concentration vs G7 CTX 50 mg/kg 1× wk ip (NZM mice; G2 3 mg/kg 2× wk ip): p < 0.001
p, serum IL-17A concentration vs G8 Dex 1.5 mg/kg 3× wk ip (NZM mice; G2 3 mg/kg 2× wk ip): NS (NS = not significant (p > 0.05))
p, serum IL-17A concentration vs G9 Vehicle 1× wk ip (NZM mice; G2 3 mg/kg 2× wk ip): NS (NS = not significant (p > 0.05))
p, serum IP-10 concentration vs G5 Bortezomib 0.3 mg/kg 1× wk ip (NZM mice; G2 3 mg/kg 2× wk ip): NS (NS = not significant (p > 0.05))
p, serum IP-10 concentration vs G6 Bortezomib 0.3 mg/kg 2× wk ip (NZM mice; G2 3 mg/kg 2× wk ip): NS (NS = not significant (p > 0.05))
p, serum IP-10 concentration vs G7 CTX 50 mg/kg 1× wk ip (NZM mice; G2 3 mg/kg 2× wk ip): p < 0.001
p, serum IP-10 concentration vs G8 Dex 1.5 mg/kg 3× wk ip (NZM mice; G2 3 mg/kg 2× wk ip): NS (NS = not significant (p > 0.05))
p, serum IP-10 concentration vs G9 Vehicle 1× wk ip (NZM mice; G2 3 mg/kg 2× wk ip): NS (NS = not significant (p > 0.05))
p, serum MIG concentration vs G5 Bortezomib 0.3 mg/kg 1× wk ip (NZM mice; G2 3 mg/kg 2× wk ip): NS (NS = not significant (p > 0.05))
p, serum MIG concentration vs G6 Bortezomib 0.3 mg/kg 2× wk ip (NZM mice; G2 3 mg/kg 2× wk ip): NS (NS = not significant (p > 0.05))
p, serum MIG concentration vs G7 CTX 50 mg/kg 1× wk ip (NZM mice; G2 3 mg/kg 2× wk ip): p < 0.001
p, serum MIG concentration vs G8 Dex 1.5 mg/kg 3× wk ip (NZM mice; G2 3 mg/kg 2× wk ip): NS (NS = not significant (p > 0.05))
p, serum MIG concentration vs G9 Vehicle 1× wk ip (NZM mice; G2 3 mg/kg 2× wk ip): NS (NS = not significant (p > 0.05))
p, serum TNFα concentration vs G5 Bortezomib 0.3 mg/kg 1× wk ip (NZM mice; G2 3 mg/kg 2× wk ip): NS (NS = not significant (p > 0.05))
p, serum TNFα concentration vs G6 Bortezomib 0.3 mg/kg 2× wk ip (NZM mice; G2 3 mg/kg 2× wk ip): NS (NS = not significant (p > 0.05))
p, serum TNFα concentration vs G7 CTX 50 mg/kg 1× wk ip (NZM mice; G2 3 mg/kg 2× wk ip): NS (NS = not significant (p > 0.05))
p, serum TNFα concentration vs G8 Dex 1.5 mg/kg 3× wk ip (NZM mice; G2 3 mg/kg 2× wk ip): p <0.001
p, serum TNFα concentration vs G9 Vehicle 1× wk ip (NZM mice; G2 3 mg/kg 2× wk ip): NS (NS = not significant (p > 0.05))
Cytokine IL-12 AUC, percent change vs vehicle (NZM mice; G2 3 mg/kg ip, 2× wk): −67%
Cytokine IL-13 AUC, percent change vs vehicle (NZM mice; G2 3 mg/kg ip, 2× wk): −33%
Cytokine IL-17A AUC, percent change vs vehicle (NZM mice; G2 3 mg/kg ip, 2× wk): −89%
Cytokine IP-10 AUC, percent change vs vehicle (NZM mice; G2 3 mg/kg ip, 2× wk): −30%
Cytokine MIG AUC, percent change vs vehicle (NZM mice; G2 3 mg/kg ip, 2× wk): −66%
Cytokine TNFα AUC, percent change vs vehicle (NZM mice; G2 3 mg/kg ip, 2× wk): −57%
serum IL-12p40/p70 decrease vs vehicle (NZM mice; G2: 3 mg/kg ip twice weekly): 67%
serum TNFα compared to Dex (NZM mice; both once and twice weekly doses, p<0.001): decreased serum TNFα over that of Dex
serum IL-12 decrease vs vehicle, range over the substance's groups (NZM mice; once and twice weekly groups): 67-83%
serum CXCL9/MIG as compared to CTX (NZM mice; p<0.001 vs CTX, but not to DEX): decreased
IL-13 serum levels compared to vehicle (NZM mice; treatment groups): No significant change
IL-17A serum levels compared to vehicle (NZM mice; treatment groups): No significant change
serum CXCL10/IP-10 decrease vs vehicle (NZM mice; twice weekly dose): 30%
decrease in average renal pathology score vs vehicle (MRL/lpr mice; COMPOUND A treatment groups): 1.55-1.86 fold
EOS glomerular cellularity, percent change vs vehicle (MRL/lpr mice; G1: 3 mg/kg iv, 1× wk): −41%
EOS glomerular necrosis, percent change vs vehicle (MRL/lpr mice; G1: 3 mg/kg iv, 1× wk): −38%
EOS glomerulosclerosis, percent change vs vehicle (MRL/lpr mice; G1: 3 mg/kg iv, 1× wk): −39%
EOS interstitial infiltration, percent change vs vehicle (MRL/lpr mice; G1: 3 mg/kg iv, 1× wk): −42%
EOS vasculitis, percent change vs vehicle (MRL/lpr mice; G1: 3 mg/kg iv, 1× wk): −33%
Kidney EOS interstitial fibrosis, percent change vs vehicle (MRL/lpr mice; G1: 3 mg/kg iv, 1× wk): −31%
Kidney EOS tubular atrophy, percent change vs vehicle (MRL/lpr mice; G1: 3 mg/kg iv, 1× wk): −35%
EOS glomerular cellularity, percent change vs vehicle (MRL/lpr mice; G2: 3 mg/kg iv, 2× wk): −36%
EOS glomerular necrosis, percent change vs vehicle (MRL/lpr mice; G2: 3 mg/kg iv, 2× wk): −47%
EOS glomerulosclerosis, percent change vs vehicle (MRL/lpr mice; G2: 3 mg/kg iv, 2× wk): −45%
EOS interstitial infiltration, percent change vs vehicle (MRL/lpr mice; G2: 3 mg/kg iv, 2× wk): −61%
EOS vasculitis, percent change vs vehicle (MRL/lpr mice; G2: 3 mg/kg iv, 2× wk): −45%
Kidney EOS interstitial fibrosis, percent change vs vehicle (MRL/lpr mice; G2: 3 mg/kg iv, 2× wk): −42%
Kidney EOS tubular atrophy, percent change vs vehicle (MRL/lpr mice; G2: 3 mg/kg iv, 2× wk): −46%
EOS glomerular cellularity, percent change vs vehicle (MRL/lpr mice; G3: 10 mg/kg po, 2× wk): −33%
EOS glomerular necrosis, percent change vs vehicle (MRL/lpr mice; G3: 10 mg/kg po, 2× wk): −31%
EOS glomerulosclerosis, percent change vs vehicle (MRL/lpr mice; G3: 10 mg/kg po, 2× wk): −33%
EOS interstitial infiltration, percent change vs vehicle (MRL/lpr mice; G3: 10 mg/kg po, 2× wk): −50%
EOS vasculitis, percent change vs vehicle (MRL/lpr mice; G3: 10 mg/kg po, 2× wk): −43%
Kidney EOS interstitial fibrosis, percent change vs vehicle (MRL/lpr mice; G3: 10 mg/kg po, 2× wk): −27%
Kidney EOS tubular atrophy, percent change vs vehicle (MRL/lpr mice; G3: 10 mg/kg po, 2× wk): −42%
renal interstitial infiltration reduction vs vehicle (MRL/lpr mice; all 3 COMPOUND A treatment groups): up to 61%
